Test: Phase 1 safety: adverse events
Format: in vivo, human
Procedure: All patients underwent a complete medical history and physical examination, assessment of ECOG performance status and vital signs, and laboratory analysis of haematology, coagulation, clinical chemistry, and urine. Three serial resting and supine 12-lead electrocardiograms were conducted over 5–10 min and cardiac ejection fraction was assessed by echocardiogram or MUGA. In addition, a complete ophthalmologic examination (including visual acuity; fundoscopy and tonometry; optical coherence tomography; and slit-lamp, lens, vitreous, and fluorescence dye examinations) was performed on each patient. These assessments were repeated throughout study participation and/or as clinically indicated. Adverse events were reviewed on an ongoing basis.
Adverse events and serious AEs (SAEs) were coded by preferred term (PT) and system organ class using the Medical Dictionary for Regulatory Activities version 12.0. The severity of AEs was assessed by investigators using the National Cancer Institute Common Terminology Criteria for Adverse Events version 3.0. Two AEs of special interest were captured under the composite terms of ‘combined rash' and ‘combined ocular events.' The ‘combined rash' term included the PTs of dermatitis acneiform, acne, skin exfoliation, and any term containing ‘rash'. The ‘combined ocular events' term included the PTs of retinal deposits, retinopathy, papilloedema, chorioretinopathy, macular oedema, retinal detachment, and retinal disorder.
All patients who received ⩾1 dose of binimetinib were included in the safety analysis. Patients in the safety analysis who had ⩾1 measurable lesion at baseline and at least 1 post-baseline disease assessment were evaluable for efficacy. Kaplan–Meier estimates of progression-free survival (PFS) and overall survival (OS) were performed for patients in the expansion phase ([Kaplan and Meier, 1958]) using SAS Version 9.2 (SAS Institute Inc., Cary, NC, USA).

[1] = AEs regardless of causality, N=93

In the case of `Cn1cnc2c(F)c(Nc3ccc(Br)cc3F)c(C(=O)NOCCO)cc21` [binimetinib], the Anaemia (80 mg BID (n=4), Gr 1/2) is reported as 0 (0) n (%), the Anorexia (80 mg BID (n=4), Gr 1/2) is reported as 1 (25) n (%) and the Combined ocular events (80 mg BID (n=4), Gr 1/2) is reported as 1 (25) n (%). For the same compound, the Combined rash (80 mg BID (n=4), Gr 1/2) was 0 (0) n (%), the Constipation (80 mg BID (n=4), Gr 1/2) was 0 (0) n (%) and the Diarrhoea (80 mg BID (n=4), Gr 1/2) was 1 (25) n (%). For the same compound, the Dizziness (80 mg BID (n=4), Gr 1/2) was 0 (0) n (%), the Dyspnoea (80 mg BID (n=4), Gr 1/2) was 1 (25) n (%) and the Fatigue (80 mg BID (n=4), Gr 1/2) was 1 (25) n (%). The Nausea (80 mg BID (n=4), Gr 1/2) was 1 (25) n (%), the Peripheral oedema (80 mg BID (n=4), Gr 1/2) was 2 (50) n (%) and the Pyrexia (80 mg BID (n=4), Gr 1/2) was 0 (0) n (%). The Vomiting (80 mg BID (n=4), Gr 1/2) was 2 (50) n (%), the Abdominal pain (80 mg BID (n=4), Gr 3/4) was 0 (0) n (%) and the Anaemia (80 mg BID (n=4), Gr 3/4) was 0 (0) n (%). For the same compound, the Anorexia (80 mg BID (n=4), Gr 3/4) was 0 (0) n (%), the Combined ocular events (80 mg BID (n=4), Gr 3/4) was 1 (25) n (%) and the Combined rash (80 mg BID (n=4), Gr 3/4) was 1 (25) n (%). For the same compound, the Constipation (80 mg BID (n=4), Gr 3/4) was 0 (0) n (%), the Diarrhoea (80 mg BID (n=4), Gr 3/4) was 0 (0) n (%) and the Dizziness (80 mg BID (n=4), Gr 3/4) was 0 (0) n (%). The Dyspnoea (80 mg BID (n=4), Gr 3/4) was 0 (0) n (%), the Fatigue (80 mg BID (n=4), Gr 3/4) was 0 (0) n (%) and the Nausea (80 mg BID (n=4), Gr 3/4) was 0 (0) n (%). For the same compound, the Peripheral oedema (80 mg BID (n=4), Gr 3/4) was 0 (0) n (%), the Pyrexia (80 mg BID (n=4), Gr 3/4) was 0 (0) n (%) and the Vomiting (80 mg BID (n=4), Gr 3/4) was 0 (0) n (%). For the same compound, the “AEs resulting in treatment discontinuation, patients” value (80 mg BID dose group) was 25%, the “AEs that resulted in dose reduction, patients” value (80 mg BID dose group) was 75% and the “Incidence of ocular events” value (80 mg BID dose group) was 50%. For the same compound, the “Incidence of peripheral oedema” value (80 mg BID dose group) was 50%, the “Median time to onset of ocular events” value (18 patients with ocular events, range, 2–168 days) was 17 days and the “Patients who experienced grade 2 events” value [1] was 41%. The “Patients who experienced grade 3 events” value [1] was 49%, the “Grade 3 abdominal pain” value (N=93) was 4% and the “Grade 3 anaemia” value (N=93) was 11%. For the same compound, the “Grade 3 dehydration” value (N=93) was 4%, the “Grade 4 AEs, patients” value (N=93) was 6% and the “Grade 4 anaemia” value (N=93) was 3%. The “Grade 5 events” value (N=93) was “no grade 5 events”, the Abdominal pain (Total (N=93), all grades) was 20 (22) n (%) and the Anaemia (Total (N=93), all grades) was 24 (26) n (%). For the same compound, the Anorexia (Total (N=93), all grades) was 18 (19) n (%), the Combined ocular events (Total (N=93), all grades) was 18 (19) n (%) and the Combined rash (Total (N=93), all grades) was 75 (81) n (%). The Constipation (Total (N=93), all grades) was 18 (19) n (%), the Diarrhoea (Total (N=93), all grades) was 47 (51) n (%) and the Dizziness (Total (N=93), all grades) was 14 (15) n (%). The Dyspnoea (Total (N=93), all grades) was 17 (18) n (%), the Fatigue (Total (N=93), all grades) was 40 (43) n (%) and the Nausea (Total (N=93), all grades) was 52 (56) n (%). For the same compound, the Peripheral oedema (Total (N=93), all grades) was 43 (46) n (%), the Pyrexia (Total (N=93), all grades) was 17 (18) n (%) and the Vomiting (Total (N=93), all grades) was 48 (52) n (%). The “Diarrhoea, patients” value (all dose levels, all grades) was 51%, the “Fatigue, patients” value (all dose levels, all grades) was 43% and the “Nausea, patients” value (all dose levels, all grades) was 56%. The “Ocular events (combined), patients” value (all dose levels, all grades) was 19%, the “Peripheral oedema, patients” value (all dose levels, all grades) was 46% and the “Rash (combined rash and related skin disorders), patients” value (all dose levels, all grades) was 81%. For the same compound, the “Vomiting, patients” value (all dose levels, all grades) was 52%, the “AEs of increased blood CK, patients” value (all patients) was 13% and the “AEs of increased blood CK-MB, patients” value (all patients) was 1%. For the same compound, the “Combined rash grade 1, patients” value (all patients) was 44%, the “Combined rash grade 2, patients” value (all patients) was 33% and the “Discontinuation due to combined rash” value (all patients) was 2%. The “Discontinuation due to fatigue” value (all patients) was 3%, the “Discontinuation due to nausea” value (all patients) was 3% and the “Discontinuation due to small intestinal obstruction” value (all patients) was 2%. For the same compound, the “Dose modification for AEs of increased blood CK, patients” value (all patients) was 4%, the “Dose reduction due to chorioretinopathy” value (all patients) was 9% and the “Dose reduction due to combined rash” value (all patients) was 3%. For the same compound, the “Dose reduction due to diarrhoea” value (all patients) was 2%, the “Dose reduction due to fatigue” value (all patients) was 2% and the “Dose reduction due to increased CK” value (all patients) was 2%. The “Dose reduction due to macular oedema” value (all patients) was 2%, the “Dose reduction due to myodesopsia” value (all patients) was 2% and the “Dose reduction due to photopsia” value (all patients) was 3%. For the same compound, the “Dose reduction due to retinal detachment” value (all patients) was 3%, the “Dose reduction due to retinopathy” value (all patients) was 2% and the “Dose reduction due to visual impairment” value (all patients) was 2%. The “Dose reduction due to vomiting” value (all patients) was 2%, the “Grade 3 ocular event of chorioretinopathy, patients” value (all patients) was 1% and the “Maximum reported SAE severity grade 2, patients” value (all patients) was 5%. The “Maximum reported SAE severity grade 3, patients” value (all patients) was 22%, the “Maximum reported SAE severity grade 4, patients” value (all patients) was 3% and the “Maximum reported severity of nausea, vomiting, or diarrhoea” value (all patients) was “either grade 1 or grade 2”. For the same compound, the “Ocular events grade 1, patients” value (all patients) was 5%, the “Ocular events grade 2, patients” value (all patients) was 13% and the “Peripheral oedema maximum severity grade 1, patients” value (all patients) was 32%. The “Peripheral oedema maximum severity grade 2, patients” value (all patients) was 14%, the “Permanent discontinuation for peripheral oedema, patients” value (all patients) was 1% and the SAE anaemia (all patients) was 4%. For the same compound, the SAE bacteraemia (all patients) was 2%, the SAE dehydration (all patients) was 2% and the SAE gastrointestinal haemorrhage (all patients) was 2%. For the same compound, the SAE pneumonia (all patients) was 2%, the “SAE small intestinal obstruction” value (all patients) was 2% and the SAE ulcer haemorrhage (all patients) was 2%. For the same compound, the “Grade 1 venous stasis retinopathy, patients” value (all patients, led to permanent discontinuation) was 1%, the “Combined rash grade 3, patients” value (all patients, required dose modification or discontinuation) was 3% and the “Patients who died during the study or within 30 days of the last dose” value (cause of death disease progression in all) was 22%. For the same compound, the “Patients reporting SAEs” value (during the study or within 30 days of the last dose, all patients) was 30%, the “Increased CK, patients” value (laboratory values, all patients) was 69% and the Ocular events recovering/resolving (of patients with ocular events) was 17%. The “Ocular events with complete resolution” value (of patients with ocular events) was 78%, the “Ocular events with stable retinal findings at treatment discontinuation” value (of patients with ocular events) was 6% and the “Clinically significant CK values, patients” value (shifted by ⩾3 grades from baseline and/or grade 4) was 10%.

Source: PMC5344293, “A phase 1 dose-escalation and expansion study of binimetinib (MEK162), a potent and selective oral MEK1/2 inhibitor” (British Journal of Cancer, 2017)
